Measured values: ChEMBL document CHEMBL6109109, “Fatty acid binding protein 5 inhibitors as novel anticancer agents against metastatic castration-resistant prostate cancer” (Bioorg Med Chem, 2025)

What was measured:
[1] = Synergistic anticancer activity against mouse RCaP cells assessed as cell growth inhibition at 20 uM measured after 72 hrs in presence of 0.001 uM of topotecan by MTT assay relative to control; assay type: functional; conditions: read-out: GI
[2] = Synergistic anticancer activity against mouse RCaP cells assessed as cell growth inhibition at […] measured after 72 hrs in presence of 1 uM of topotecan by MTT assay relative to control; assay type: functional; conditions: dose 2.5 µM, read-out: GI
[3] = Synergistic anticancer activity against mouse RCaP cells assessed as cell growth inhibition at 10 uM measured after 72 hrs in presence of 0.0001 uM of topotecan by MTT assay relative to control; assay type: functional; conditions: read-out: GI
[4] = Synergistic anticancer activity against mouse RCaP cells assessed as cell growth inhibition at 20 uM measured after 72 hrs in presence of 1 uM of topotecan by MTT assay relative to control; assay type: functional; conditions: read-out: GI
[5] = Synergistic anticancer activity against mouse RCaP cells assessed as cell growth inhibition at 5 uM measured after 72 hrs in presence of 0.1 uM of topotecan by MTT assay relative to control; assay type: functional; conditions: read-out: GI
[6] = Synergistic anticancer activity against mouse RCaP cells assessed as cell growth inhibition at […] measured after 72 hrs in presence of 10 uM of topotecan by MTT assay relative to control; assay type: functional; conditions: dose 2.5 µM, read-out: GI
[7] = tested on: PC-3; test: Synergistic anticancer activity against human PC-3 cells assessed as cell growth inhibition at 5 uM measured after 72 hrs in presence of 10 uM of topotecan by MTT assay relative to control; assay type: functional; conditions: read-out: GI
[8] = Synergistic anticancer activity against mouse RCaP cells assessed as cell growth inhibition at 20 uM measured after 72 hrs in presence of 0.1 uM of topotecan by MTT assay relative to control; assay type: functional; conditions: read-out: GI
[9] = Synergistic anticancer activity against mouse RCaP cells assessed as cell growth inhibition at 5 uM measured after 72 hrs in presence of 1 uM of topotecan by MTT assay relative to control; assay type: functional; conditions: read-out: GI
[10] = Synergistic anticancer activity against mouse RCaP cells assessed as cell growth inhibition at 5 uM measured after 72 hrs in presence of 0.01 uM of topotecan by MTT assay relative to control; assay type: functional; conditions: read-out: GI
[11] = Synergistic anticancer activity against mouse RCaP cells assessed as cell growth inhibition at 10 uM measured after 72 hrs in presence of 0.001 uM of topotecan by MTT assay relative to control; assay type: functional; conditions: read-out: GI
[12] = Synergistic anticancer activity against mouse RCaP cells assessed as cell growth inhibition at […] measured after 72 hrs in presence of 0.001 uM of topotecan by MTT assay relative to control; assay type: functional; conditions: dose 2.5 µM, read-out: GI
[13] = tested on: PC-3; test: Synergistic anticancer activity against human PC-3 cells assessed as cell growth inhibition at 10 uM measured after 72 hrs in presence of 0.01 uM of topotecan by MTT assay relative to control; assay type: functional; conditions: read-out: GI
[14] = Synergistic anticancer activity against mouse RCaP cells assessed as cell growth inhibition at 10 uM measured after 72 hrs in presence of 0.01 uM of topotecan by MTT assay relative to control; assay type: functional; conditions: read-out: GI
[15] = Synergistic anticancer activity against mouse RCaP cells assessed as cell growth inhibition at 10 uM measured after 72 hrs in presence of 0.00001 uM of topotecan by MTT assay relative to control; assay type: functional; conditions: read-out: GI
[16] = Cytotoxicity against mouse RCaP cells assessed as cell growth inhibition at 10 uM measured after 72 hrs by MTT assay relative to control; assay type: functional; conditions: read-out: GI
[17] = Synergistic anticancer activity against mouse RCaP cells assessed as cell growth inhibition at […] measured after 72 hrs in presence of 0.0001 uM of topotecan by MTT assay relative to control; assay type: functional; conditions: dose 2.5 µM, read-out: GI
[18] = Synergistic anticancer activity against mouse RCaP cells assessed as cell growth inhibition at 5 uM measured after 72 hrs in presence of 0.001 uM of topotecan by MTT assay relative to control; assay type: functional; conditions: read-out: GI
[19] = tested on: PC-3; test: Cytotoxicity against human PC-3 cells assessed as cell growth inhibition at 5 uM measured after 72 hrs by MTT assay relative to control; assay type: functional; conditions: read-out: GI
[20] = Synergistic anticancer activity against mouse RCaP cells assessed as cell growth inhibition at 10 uM measured after 72 hrs in presence of 0.1 uM of topotecan by MTT assay relative to control; assay type: functional; conditions: read-out: GI
[21] = tested on: PC-3; test: Synergistic anticancer activity against human PC-3 cells assessed as cell growth inhibition at 5 uM measured after 72 hrs in presence of 0.1 uM of topotecan by MTT assay relative to control; assay type: functional; conditions: read-out: GI
[22] = tested on: PC-3; test: Cytotoxicity against human PC-3 cells assessed as reduction in cell viability measured after 72 hrs by MTT assay; assay type: functional, cell-based; conditions: PC-3, 72 h
[23] = Synergistic anticancer activity against mouse RCaP cells assessed as cell growth inhibition at 20 uM measured after 72 hrs in presence of 0.0001 uM of topotecan by MTT assay relative to control; assay type: functional; conditions: read-out: GI
[24] = Cytotoxicity against human WI-38 cells assessed as reduction in cell viability measured after 72 hrs by MTT assay; assay type: toxicity, cell-based
[25] = tested on: PC-3; test: Synergistic anticancer activity against human PC-3 cells assessed as cell growth inhibition at 5 uM measured after 72 hrs in presence of 0.01 uM of topotecan by MTT assay relative to control; assay type: functional; conditions: read-out: GI
[26] = tested on: PC-3; test: Synergistic anticancer activity against human PC-3 cells assessed as cell growth inhibition at 5 uM measured after 72 hrs in presence of 1 uM of topotecan by MTT assay relative to control; assay type: functional; conditions: read-out: GI
[27] = Synergistic anticancer activity against mouse RCaP cells assessed as cell growth inhibition at […] measured after 72 hrs in presence of 0.1 uM of topotecan by MTT assay relative to control; assay type: functional; conditions: dose 2.5 µM, read-out: GI
[28] = tested on: PC-3; test: Synergistic anticancer activity against human PC-3 cells assessed as cell growth inhibition at 20 uM measured after 72 hrs in presence of 0.001 uM of topotecan by MTT assay relative to control; assay type: functional; conditions: read-out: GI
[29] = Cytotoxicity against mouse RCaP cells assessed as cell growth inhibition at 5 uM measured after 72 hrs by MTT assay relative to control; assay type: functional; conditions: read-out: GI
[30] = tested on: PC-3; test: Synergistic anticancer activity against human PC-3 cells assessed as cell growth inhibition at 20 uM measured after 72 hrs in presence of 10 uM of topotecan by MTT assay relative to control; assay type: functional; conditions: read-out: GI
[31] = Synergistic anticancer activity against mouse RCaP cells assessed as cell growth inhibition at 20 uM measured after 72 hrs in presence of 10 uM of topotecan by MTT assay relative to control; assay type: functional; conditions: read-out: GI
[32] = Synergistic anticancer activity against mouse RCaP cells assessed as cell growth inhibition at 10 uM measured after 72 hrs in presence of 1 uM of topotecan by MTT assay relative to control; assay type: functional; conditions: read-out: GI
[33] = Cytotoxicity against mouse RCaP cells assessed as cell growth inhibition at […] measured after 72 hrs by MTT assay relative to control; assay type: functional; conditions: dose 2.5 µM, read-out: GI
[34] = Synergistic anticancer activity against mouse RCaP cells assessed as cell growth inhibition at 5 uM measured after 72 hrs in presence of 0.00001 uM of topotecan by MTT assay relative to control; assay type: functional; conditions: read-out: GI
[35] = tested on: PC-3; test: Synergistic anticancer activity against human PC-3 cells assessed as cell growth inhibition at 10 uM measured after 72 hrs in presence of 0.00001 uM of topotecan by MTT assay relative to control; assay type: functional; conditions: read-out: GI

SMILES: O=C(O)[C@H]1[C@H](c2ccccc2)[C@H](C(=O)Oc2cc(-c3ccc4c(c3)OCO4)ccc2-c2ccccc2)[C@H]1c1ccccc1
- inhibition of growth at 20 µM [1]: 97.8%
- inhibition of growth at […] [2]: 98.6%
- inhibition of growth at 10 µM [3]: 68%
- inhibition of growth at 20 µM [4]: 98.8%
- inhibition of growth at 5 µM [5]: 87.2%
- inhibition of growth at […] [6]: 99.9%
- inhibition of growth at 5 µM [7]: 80.8%
- inhibition of growth at 20 µM [8]: 98.9%
- inhibition of growth at 5 µM [9]: 97.9%
- inhibition of growth at 5 µM [10]: 34.4%
- inhibition of growth at 10 µM [11]: 71.9%
- inhibition of growth at […] [12]: 6.33%
- inhibition of growth at 10 µM [13]: 83%
- inhibition of growth at 10 µM [14]: 71.7%
- inhibition of growth at 10 µM [15]: 68.4%
- inhibition of growth at 10 µM [16]: 58.6%
- inhibition of growth at […] [17]: 10.1%
- inhibition of growth at 5 µM [18]: 28.3%
- inhibition of growth at 5 µM [19]: 28.4%
- inhibition of growth at 10 µM [20]: 97.2%
- inhibition of growth at 5 µM [21]: 49.9%
- IC50 [22]: 9.89 µM
- inhibition of growth at 20 µM [23]: 96.7%
- IC50 at 72 h [24]: 19.5 µM
- inhibition of growth at 5 µM [25]: 35.2%
- inhibition of growth at 5 µM [26]: 72.2%
- inhibition of growth at […] [27]: 82%
- inhibition of growth at 20 µM [28]: 98.4%
- inhibition of growth at 5 µM [29]: 22.5%
- inhibition of growth at 20 µM [30]: 98.2%
- inhibition of growth at 20 µM [31]: 99.2%
- inhibition of growth at 10 µM [32]: 96%
- inhibition of growth at […] [33]: 5.2%
- inhibition of growth at 5 µM [34]: 27%
- inhibition of growth at 10 µM [35]: 78.9%

SMILES: COc1ccccc1[C@H]1[C@H](C(=O)O)[C@H](c2ccccc2OC)[C@H]1C(=O)Oc1cc(-c2ccc3c(c2)OCO3)ccc1-c1ccccc1
- inhibition of growth at 20 µM [1]: 100%
- inhibition of growth at […] [2]: 98.2%
- inhibition of growth at 10 µM [3]: 89.4%
- inhibition of growth at 20 µM [4]: 100%
- inhibition of growth at 5 µM [5]: 91.9%
- inhibition of growth at […] [6]: 98.9%
- inhibition of growth at 5 µM [7]: 92.5%
- inhibition of growth at 20 µM [8]: 99.6%
- inhibition of growth at 5 µM [9]: 97.9%
- inhibition of growth at 5 µM [10]: 49.6%
- inhibition of growth at 10 µM [11]: 88.4%
- inhibition of growth at […] [12]: 1.77%
- inhibition of growth at 10 µM [13]: 77.4%
- inhibition of growth at 10 µM [14]: 87.8%
- inhibition of growth at 10 µM [15]: 89.5%
- inhibition of growth at 10 µM [16]: 78.2%
- inhibition of growth at […] [17]: -3.7%
- inhibition of growth at 5 µM [18]: 36.1%
- inhibition of growth at 5 µM [19]: 30.7%
- inhibition of growth at 10 µM [20]: 89.9%
- inhibition of growth at 5 µM [21]: 66.6%
- IC50 [22]: 6.52 µM
- inhibition of growth at 20 µM [23]: 100%
- IC50 at 72 h [24]: 10.8 µM
- inhibition of growth at 5 µM [25]: 57.7%
- inhibition of growth at 5 µM [26]: 89.8%
- inhibition of growth at […] [27]: 89.9%
- inhibition of growth at 20 µM [28]: 99.4%
- inhibition of growth at 5 µM [29]: 40.6%
- inhibition of growth at 20 µM [30]: 98.8%
- inhibition of growth at 20 µM [31]: 100%
- inhibition of growth at 10 µM [32]: 94.8%
- inhibition of growth at […] [33]: 2.8%
- inhibition of growth at 5 µM [34]: 27.6%
- inhibition of growth at 10 µM [35]: 69.5%

SMILES: COc1ccccc1[C@H]1[C@H](C(=O)O)[C@H](c2ccccc2OC)[C@H]1C(=O)OCC1c2ccccc2-c2ccccc21
- inhibition of growth at 20 µM [1]: 98.5%
- inhibition of growth at […] [2]: 98.1%
- inhibition of growth at 10 µM [3]: 75.1%
- inhibition of growth at 20 µM [4]: 99.1%
- inhibition of growth at 5 µM [5]: 93.6%
- inhibition of growth at […] [6]: 99.6%
- inhibition of growth at 5 µM [7]: 86.4%
- inhibition of growth at 20 µM [8]: 99.9%
- inhibition of growth at 5 µM [9]: 99%
- inhibition of growth at 5 µM [10]: 31.8%
- inhibition of growth at 10 µM [11]: 76.7%
- inhibition of growth at […] [12]: 6.8%
- inhibition of growth at 10 µM [13]: 64.8%
- inhibition of growth at 10 µM [14]: 75.2%
- inhibition of growth at 10 µM [15]: 76.5%
- inhibition of growth at 10 µM [16]: 64.9%
- inhibition of growth at […] [17]: -4.8%
- inhibition of growth at 5 µM [18]: 32.3%
- inhibition of growth at 5 µM [19]: 7.5%
- inhibition of growth at 10 µM [20]: 94.3%
- inhibition of growth at 5 µM [21]: 56.3%
- IC50 [22]: 10.5 µM
- inhibition of growth at 20 µM [23]: 97.5%
- IC50 at 72 h [24]: 23 µM
- inhibition of growth at 5 µM [25]: 34.6%
- inhibition of growth at 5 µM [26]: 81%
- inhibition of growth at […] [27]: 86.6%
- inhibition of growth at 20 µM [28]: 99.8%
- inhibition of growth at 5 µM [29]: 8.67%
- inhibition of growth at 20 µM [30]: 92.3%
- inhibition of growth at 20 µM [31]: 99.3%
- inhibition of growth at 10 µM [32]: 98.3%
- inhibition of growth at […] [33]: 5.2%
- inhibition of growth at 5 µM [34]: 9.57%
- inhibition of growth at 10 µM [35]: 56.3%
